For data set [1], the system named is rat. Conditions: Combined chronic toxicity/carcinogenicity; sprague dawley; Oral; Feed; dose end: 104 week; group: systemic; systemic / in life observation / body weight / body weight + systemic / in life observation / body weight / body weight gain + systemic / in….
Data set [2] has as its system rat. Conditions: Subchronic oral toxicity in rodents, sprague dawley, Feed, dose end: 13 week, group: systemic.
The test system of data set [3] is mouse. As to conditions: Carcinogenicity; cd1; Oral; Feed; dose end: 78 week; group: systemic; systemic / in life observation / body weight / body weight + systemic / in life observation / body weight / body weight gain.
In data set [4] the test system is rat. As to conditions: Fertility (Segment I), Oral, Gavage/Intubation, dose end: 6 GD.
Data set [5] deals with rat. Conditions: Fertility (Segment I); sprague dawley; Oral; Gavage/Intubation; dose end: 63 day; group: parental; systemic / in life observation / body weight / body weight + systemic / in life observation / body weight / body weight gain + systemic / in….
Data set [6] relates to rat. As to conditions: Sub-acute repeat dose toxicity, sprague dawley, Oral, Gavage/Intubation, dose end: 1 month, group: systemic.
The subject of data set [7] is rat. As to conditions: Combined chronic toxicity/carcinogenicity, sprague dawley, Oral, Feed, dose end: 104 week, group: systemic.
Data set [8] deals with rat. Conditions: Multigenerational reproductive toxicity study, sprague dawley, Oral, Feed, dose end: 2 generation, group: parental.
The test system of data set [9] is rat. As to conditions: Developmental neurotoxicity study, sprague dawley, Oral, Gavage/Intubation, dose end: 105 PND, group: cannot be grouped.
In data set [10] the test system is mouse. Conditions: Subchronic oral toxicity in rodents, b6c3f1, Gavage/Intubation, dose end: 94 day, group: systemic, systemic / pathology microscopic / liver / vacuolization cytoplasmic + systemic / clinical chemistry / alkaline phosphatase (alp/alk) / ….
The subject of data set [11] is rat. Conditions: Subchronic oral toxicity in rodents, sprague dawley, Feed, dose end: 90 day, group: systemic, systemic / pathology gross / sperm measure / sperm count + systemic / pathology gross / sperm measure / sperm motility.
Where [12] appears, read: systemic / in life observation / body weight / body weight + systemic / in life observation / body weight / body weight gain.
Where [13] appears, read: systemic / in life observation / body weight / body weight + systemic / in life observation / body weight / body weight gain + systemic / in….
Setting [14] is: group: developmental, developmental / developmental malformation / bladder / [other].
Setting [15] is: group: parental, systemic / in life observation / body weight / body weight.
Setting [16] is: systemic / hematology / hemoglobin distribution width (hdw) / hemoglobin distribution width (hdw) + systemic / hematology / platelet / ….
Where [17] appears, read: systemic / in life observation / body weight / body weight gain + systemic / in life observation / body weight / body weight.
Where [18] appears, read: developmental / developmental landmark / eye opening / eye opening + developmental / developmental landmark / incisor eruption / incisor ….
Setting [19] is: developmental / developmental landmark / incisor eruption / incisor eruption + developmental / developmental landmark / eye opening / eye ….

Some results are limits rather than exact numbers.

A word on the LOAEL: it is the lowest dose or exposure tested at which an adverse effect was seen. The NOAEL is the highest tested level that showed no adverse finding. As for `CCCCCCCCCCCC[N+](C)(C)Cc1ccccc1.[Cl-]`, the LEL in the data set with rat [1] was determined as 88 mg/kg/day; with rat [2] (systemic / in life observation / food consumption / food consumption + systemic / pathology gross / stomach / discolored), 31.2 mg/kg/day; in the data set with mouse [3], 229 mg/kg/day. Moreover, the figures for the LOAEL in the data set on rat [1], with rat [2] (setting [12]) and in the data set on mouse [3] were 88 mg/kg/day, 62 mg/kg/day and 229 mg/kg/day, respectively. Also, the figures for the NEL in the data set with rat [1], in the data set with rat [2] (setting [13]) and in the data set with mouse [3] were 44 mg/kg/day, 6.3 mg/kg/day and 73.4 mg/kg/day, respectively. The NOAEL in the data set with rat [1] stood at 44 mg/kg/day; in the data set with rat [2] (setting [13]), 31.2 mg/kg/day; with mouse [3], 73.4 mg/kg/day.
For `CCN1CCC2(CC1)COc1cc3c(cc12)N(C(=O)c1ccc(-c2ccc(-c4nnc(C)o4)cc2C)cc1)CC3.Cl`, the LEL with rat [4] (setting [14]) worked out at 30 mg/kg/day; in the data set with rat [4] (setting [15]) it was 30 mg/kg/day; in the data set on rat [5] it was 30 mg/kg/day; in the data set with rat [6] (systemic / hematology / platelet / platelet + systemic / hematology / reticulocyte / reticulocyte), 10 mg/kg/day. In addition, the LOAEL in the data set on rat [4] (setting [14]), with rat [4] (setting [15]), in the data set with rat [5] and with rat [6] (setting [16]) was over 30 mg/kg/day throughout. In addition, the NEL came to 10 mg/kg/day in the data set on rat [4] (setting [14]), 10 mg/kg/day in the data set on rat [4] (setting [15]), 10 mg/kg/day in the data set on rat [5] and 3 mg/kg/day with rat [6] (setting [16]). The NOAEL with rat [4] (setting [14]), in the data set on rat [4] (setting [15]), in the data set with rat [5] and in the data set with rat [6] (setting [16]) was at least 30 mg/kg/day each time.
`COC(=O)c1ccccc1S(=O)(=O)NC(=O)Nc1nc(C)nc(OC)n1` [Metsulfuron-methyl]: in the data set with rat [7] (setting [12]), the lowest observed adverse effect level (LOAEL) was determined as 250 mg/kg/day, the NEL is 1.25 mg/kg/day and the NOAEL is 125 mg/kg/day. Moreover, in the data set with rat [7] (systemic / in life observation / body weight / body weight gain + systemic / in life observation / body weight / body weight + systemic / …), the LEL turned out to be 25 mg/kg/day. In addition, in the data set with rat [8] (systemic / in life observation / body weight / body weight gain), the LOAEL stood at 250 mg/kg/day. For the same compound, in the data set with rat [8] (setting [17]), the LEL came out at 250 mg/kg/day, the NEL is 25 mg/kg/day and the NOAEL worked out at 25 mg/kg/day.
Take `CC(=O)OC/C=C(C)/C=C/C=C(C)/C=C/C1=C(C)CCCC1(C)C` [Retinol acetate]: in the data set with rat [9] (setting [18]), the LOAEL is over 34.4 mg/kg/day and the NOAEL is at least 34.4 mg/kg/day. In the data set on rat [9] (setting [19]), the LEL was determined as 8.6 mg/kg/day and the NEL is under 8.6 mg/kg/day.
For the compound `CO[C@H]1/C=C/O[C@@]2(C)Oc3c(C)c(O)c4c(O)c(c(/C=N/N5CCN(C)CC5)c(O)c4c3C2=O)NC(=O)/C(C)=C\C=C\[C@H](C)[C@H](O)[C@@H](C)[C@@H](O)[C@@H](C)[C@H](OC(C)=O)[C@@H]1C` [Rifampicin], in the data set with mouse [10], the LEL is 100 mg/kg/day, the LOAEL amounted to 100 mg/kg/day, the NEL is under 100 mg/kg/day and the NOAEL is under 100 mg/kg/day.
For `O=C(O)c1ccc(C(=O)O)cc1` [Terephthalic acid], in the data set on rat [11], the LEL came out at 5820 mg/kg/day, the lowest-observed-adverse-effect level (LOAEL) was over 5820 mg/kg/day, the NEL came out at 1180 mg/kg/day and the NOAEL was at least 5820 mg/kg/day.

The values are drawn from EPA's ToxRefDB 2.
